This is an account of results in patent US11733246B2, “Compositions, imaging, and therapeutic methods targeting folate receptor 1 (FOLR1)” (Indi Molecular, Inc., priority 2020, dated 2023).

The target in one data set is T1, FOLR1 (Homo sapiens, UniProt P15328).
T1 construct: His; purchased SinoBiological 11241-H08H
Briefly: ELISA assay of FOLR1 binding. An excerpt:
FIG. 5 is a diagram of ELISA assay of FOLR1 binding of heterobiligands.
Nonclinical studies were first conducted with Folate-hshta-PEG10-PEG10-K(Biotin), where Folate-hshta is the targeting heterobiligand, PEG10 is a deca(ethylene glycol) linker, and K(Biotin) is the detection label.

The nature of data set [1]: Plasma protein binding (equilibrium dialysis), mouse. It is filed as in vitro ADME, CD-1 mouse. Here is the method: (§1) HTD 96 a/b regenerated cellulose membrane strips with mass cutoff of 12-14 kDa were soaked in ultra-pure water at room temperature for 1 hour. Each swelled membrane was then soaked in 20:80 ethanol:water for 20 minutes.
(§2) Just prior to the experiment, the membranes were re-soaked in ultra-pure water. Plasma was prepared by thawing under cold water. The plasma was centrifuged to remove any clots and pH was adjusted to 7.0-8.0. Test articles and control compounds were diluted to 2 μM. The dialysis device was loaded by transferring 150 μL of the test article (in triplicate) to the donor side. The dialysis device was placed in a humidified incubator at 37° C. with 5% CO2 in a shaking platform that rotated slowly for 4 hours. After incubation, 50 μL of the supernatant was taken from both sides and analyzed by LC-MS/MS.
(§3) To optimize the albumin binding potential of the heterobiligand, a plasma protein binding (PPB) experiment was performed. This experiment measured the amount of test article bound and free after equilibrating with plasma. Compound #6305 (folate-hshta-Lys(MPBA)-Gly-Phe-Lys(DOTA) (SEQ ID NO:6)), which contains the MPBA albumin binder, was 96.26% bound to mouse plasma and 98.34% bound to human plasma. […] In mouse and human plasmas 99.6% and 99.5% was bound, respectively.

Another data set deals with human recombinant NEP (Homo sapiens, UniProt P08473). It is filed as biochemical. Here is the method: In order to test the susceptibility of GFK and MVK linkers to NEP-mediated cleavage, the peptide (Folate-hshta-Lys(MPBA)-Gly-Phe-Lys(DOTA) (SEQ ID NO:6)) was incubated with human recombinant NEP and analyzed the solution for the presence of cleaved adducts. MALDI was utilized to monitor the cleavage of a PCC heterobiligand that contains a NEP protease recognizable sequence (G-F-K). The PCC concentration was constant and the NEP concentration was titrated down from 10 nM to 1 nM, 0.1 nM, 0.01 nM, and no NEP. The NEP-mediated cleaved adduct was identified by mass. 10 μM PCC containing the GFK linker was combined with varying amounts of NEP. […] Below 0.1 nM no cleavage was observed. • Folate-hshta-Lys(MPBA)-Gly-Phe-Lys(DOTA) (SEQ ID NO:6) • Molecular weight 2231.42
The NEP-mediated cleavage was also monitored by HPLC. In agreement with the MALDI spectra, the HPLC chromatograms show depletion of the parent brush-border heterobiligand (retention time 17.1 minutes), dose-dependent on the amount of NEP spiked into the sample (10 nM, 1 nM, 0.1 nM, 0.01 nM, and no NEP). An appearance of a new peak (retention time 16.5 minutes) in concert with the depletion of the starting material is presumed to be the cleaved folate-containing peptide.
In order to test the specificity of NEP, a non-cleavable linker (PEG3) was also assayed.
To reduce the radioactive dose to the kidney, Indi ^177Lu-7327 was constructed to incorporate a GFK linker that is susceptible to cleavage by enzymes found predominately in the kidney's brush border. These enzymes cleave off the radionuclide-chelator complex, which is quickly eliminated by the kidney for excretion in the urine. The zinc metalloprotease neprilysin (NEP) is expressed with high abundance in the kidney. […] To confirm NEP-mediated cleavage of the GFK linker in Indi 7327, the peptide was incubated with recombinant human NEP at 37° C. for 1 h and analyzed by matrix-assisted laser desorption/ionization mass spectrometry (MALDI-MS) for the evolution of cleaved adducts (FIG. 42). […] The expected cleaved adduct (mass: 1283.16 m/z) appears in the samples containing 10, 1.0, and 0.1 nM NEP. […] Below 0.1 nM NEP, no cleavage was observed. In addition to confirming the selectivity of NEP for the GFK linker, it is also important to note that the remaining portions of the Indi 7327 were impervious to the enzyme.

A short description of data set [2]: Plasma protein binding (equilibrium dialysis), human. Type of data set: in vitro ADME. The method, then:
as §1, §2, §3

[3] abbreviates: albumin binder / DOTA tagged biotin-labeled heterobiligands, read-out: EC50.

Like-named read-outs stand apart in the source and are kept apart here. Numbered stars: 1 amine (or outer) side, 2 acyl side, 3 side chain; on linkers, the order of the positions; unused ones are H or OH. Bridge positions count the residues as written; N and C are the ends. Square brackets hold non-standard residues; d marks the D form. Triazole bridges read from a SMILES are 1,4-linked. Side chains are listed from the residue outwards. Peptide text beside a SMILES is read from it. * marks the point of attachment. DOTA = O=C(O)CN1CCN(CC(=O)O)CCN(CC(=O)*)CCN(CC(=O)O)CC1; Pteroyl = Nc1nc2ncc(CNc3ccc(C(=O)*)cc3)nc2c(=O)[nH]1; Biotin = O=C1N[C@H]2[C@H](CS[C@H]2CCCCC(=O)*)N1; Butanoyl(4-(4-I-phenyl)) = O=C(CCCc1ccc(I)cc1)*; PEG10 = NCCOCCOCCOCCOCCOCCOCCOCCOCCOCCOCCC(=O)O; Butanoyl(4-(4-MePh)) = Cc1ccc(CCCC(=O)*)cc1; Lys(N3) = [N-]=[N+]=NCCCC[C@H](N)C(=O)O; γGlu = O=C(O)[C@H](CCC(=O)[*:2])N[*:1]; AEEEA = NCCOCCOCCOCC(=O)O; Pra = C#CC[C@H](N)C(=O)O

T1 sequence (P15328 25-234): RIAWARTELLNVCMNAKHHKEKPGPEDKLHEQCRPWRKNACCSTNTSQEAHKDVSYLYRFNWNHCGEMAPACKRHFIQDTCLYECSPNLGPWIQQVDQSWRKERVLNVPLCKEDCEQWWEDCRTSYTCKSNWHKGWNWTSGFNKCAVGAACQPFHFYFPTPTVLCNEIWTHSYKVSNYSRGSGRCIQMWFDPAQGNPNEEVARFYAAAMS
Sequence of human recombinant NEP (P08473 whole entry): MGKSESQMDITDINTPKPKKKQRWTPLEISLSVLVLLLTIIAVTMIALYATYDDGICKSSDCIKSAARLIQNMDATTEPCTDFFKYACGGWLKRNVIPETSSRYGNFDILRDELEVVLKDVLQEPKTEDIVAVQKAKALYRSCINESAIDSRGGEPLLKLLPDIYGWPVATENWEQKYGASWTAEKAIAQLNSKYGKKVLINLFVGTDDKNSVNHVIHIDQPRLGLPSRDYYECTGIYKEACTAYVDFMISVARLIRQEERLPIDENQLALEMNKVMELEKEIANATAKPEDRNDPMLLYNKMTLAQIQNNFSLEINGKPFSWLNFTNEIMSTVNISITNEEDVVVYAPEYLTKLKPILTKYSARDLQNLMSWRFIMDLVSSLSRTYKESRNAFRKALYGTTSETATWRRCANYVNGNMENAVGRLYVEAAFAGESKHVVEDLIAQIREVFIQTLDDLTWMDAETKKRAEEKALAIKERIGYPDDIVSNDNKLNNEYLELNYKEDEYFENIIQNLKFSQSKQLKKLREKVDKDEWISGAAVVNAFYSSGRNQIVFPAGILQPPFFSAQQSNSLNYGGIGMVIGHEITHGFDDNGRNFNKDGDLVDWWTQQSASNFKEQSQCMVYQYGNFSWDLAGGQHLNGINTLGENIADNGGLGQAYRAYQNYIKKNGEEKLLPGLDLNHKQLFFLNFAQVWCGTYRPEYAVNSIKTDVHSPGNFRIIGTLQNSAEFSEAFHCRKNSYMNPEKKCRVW

`C[C@H](O)[C@H]1NC(=O)[C@@H](Cc2ccc(O)cc2)NC(=O)[C@@H](CCCNC(=N)N)NC(=O)[C@@H](CCC(=O)O)NC(=O)[C@@H](CC(=O)O)NC(=O)[C@@H](NC(=O)[C@H](CCCCNC(=O)COCCOCCOCCNC(=O)CC[C@H](NC(=O)c2ccc(NCc3cnc4nc(N)[nH]c(=O)c4n3)cc2)C(=O)O)NC(=O)CCOCCOCCOCCOCCOCCOCCOCCOCCOCCOCCNC(=O)CCOCCOCCOCCOCCOCCOCCOCCOCCOCCOCCNC(=O)CCCC[C@@H]2SC[C@@H]3NC(=O)N[C@@H]32)Cc2cn(nn2)CCCC[C@@H](C(N)=O)NC1=O` [Lys (PEG3 -Folate)-deryt] ({Biotin-PEG10-PEG10}-K([AEEEA-γGlu-Pteroyl])[Pra][dD][dE][dR][dY][dT][Lys(N3)]-NH2; triazole 2-8): a half-maximal effect at FOLR1 (EC50, deryt heterobiligands, ELISA) (EC50) was put at 0.16 nM.

In the case of `C[C@H](O)[C@H]1NC(=O)[C@@H](Cc2c[nH]cn2)NC(=O)[C@@H](CO)NC(=O)[C@@H](Cc2c[nH]cn2)NC(=O)[C@@H](NC(=O)CC[C@H](NC(=O)c2ccc(NCc3cnc4nc(N)[nH]c(=O)c4n3)cc2)C(=O)O)Cc2cn(nn2)CCCC[C@@H](C(=O)NCCOCCOCCOCC(=O)N[C@@H](CCCCNC(=O)CN2CCN(CC(=O)O)CCN(CC(=O)O)CCN(CC(=O)O)CC2)C(=O)NCCOCCOCCOCCOCCOCCOCCOCCOCCOCCOCCC(=O)NCCOCCOCCOCCOCCOCCOCCOCCOCCOCCOCCC(=O)N[C@@H](CCCCNC(=O)CCCC[C@@H]2SC[C@@H]3NC(=O)N[C@@H]32)C(N)=O)NC(=O)[C@@H](C)NC1=O` [Folate-hshta-DOTA] ({Pteroyl-γGlu}-[Pra][dH][dS][dH][dT][dA][Lys(N3)][AEEEA]K(DOTA)[PEG10][PEG10]K(Biotin)-NH2; triazole 1-7), the EC50 at FOLR1 (setting [3]) was determined as 0.098 nM. For `Cc1ccc(CCCC(=O)NCCCC[C@H](NC(=O)COCCOCCOCCNC(=O)[C@@H]2CCCCn3cc(nn3)C[C@H](NC(=O)CC[C@H](NC(=O)c3ccc(NCc4cnc5nc(N)[nH]c(=O)c5n4)cc3)C(=O)O)C(=O)N[C@H](Cc3c[nH]cn3)C(=O)N[C@H](CO)C(=O)N[C@H](Cc3c[nH]cn3)C(=O)N[C@H]([C@H](C)O)C(=O)N[C@H](C)C(=O)N2)C(=O)NCCOCCOCCOCCOCCOCCOCCOCCOCCOCCOCCC(=O)NCCOCCOCCOCCOCCOCCOCCOCCOCCOCCOCCC(=O)N[C@@H](CCCCNC(=O)CCCC[C@@H]2SC[C@@H]3NC(=O)N[C@@H]32)C(N)=O)cc1` [Folate-hshta-MPBA] ({Pteroyl-γGlu}-[Pra][dH][dS][dH][dT][dA][Lys(N3)][AEEEA]K(Butanoyl(4-(4-MePh)))[PEG10][PEG10]K(Biotin)-NH2; triazole 1-7), the EC50 at FOLR1 (setting [3]) was found to be 0.11 nM. For the compound `CSCC[C@H](NC(=O)[C@H](CCCCNC(=O)CCCc1ccc(I)cc1)NC(=O)[C@@H]1CCCCn2cc(nn2)C[C@H](NC(=O)CC[C@H](NC(=O)c2ccc(NCc3cnc4nc(N)[nH]c(=O)c4n3)cc2)C(=O)O)C(=O)N[C@H](Cc2c[nH]cn2)C(=O)N[C@H](CO)C(=O)N[C@H](Cc2c[nH]cn2)C(=O)N[C@H]([C@H](C)O)C(=O)N[C@H](C)C(=O)N1)C(=O)N[C@H](C(=O)N[C@@H](CCCCNC(=O)CN1CCN(CC(=O)O)CCN(CC(=O)O)CCN(CC(=O)O)CC1)C(=O)O)C(C)C` [compound #1306, Fol-hshta-Lys(4-IPBA)-Met-Val-Lys(DOTA)] ({Pteroyl-γGlu}-[Pra][dH][dS][dH][dT][dA][Lys(N3)]K(Butanoyl(4-(4-I-phenyl)))MVK(DOTA)-OH; triazole 1-7), the results for the recovery in data set [1] and in data set [2] were 82.7% and 84.8%, respectively. In addition, the “in vitro Assay Data (NEP assay)” value with human recombinant NEP is given as “Cleavage of -M-V-K-”.
